Measurements reported in the NIST ThermoML archive (doi:10.1016/j.jct.2016.10.023).
Numbers after ± are expanded uncertainties.

Experiment: xn = mol fraction of the nth substance listed
Conditions: Constant-volume piezometry

CCCCC [pentane] + CCCO
Conditions	mass density [kg/m3]
563.15 K, 15195 kPa, Fluid (supercritical or subcritical phases), x1 = 0.9	353.41 ± 1.8
563.15 K, 15944 kPa, Fluid (supercritical or subcritical phases), x1 = 0.8	361.2 ± 1.8
563.15 K, 20883 kPa, Fluid (supercritical or subcritical phases), x1 = 0.2	469.34 ± 2.4
563.15 K, 22608 kPa, Fluid (supercritical or subcritical phases), x1 = 0.9	406.44 ± 2
563.15 K, 23762 kPa, Fluid (supercritical or subcritical phases), x1 = 0.8	417.33 ± 2.1
563.15 K, 29039 kPa, Fluid (supercritical or subcritical phases), x1 = 0.2	508.42 ± 2.6
563.15 K, 36842 kPa, Fluid (supercritical or subcritical phases), x1 = 0.8	465.69 ± 2.4
563.15 K, 41493 kPa, Fluid (supercritical or subcritical phases), x1 = 0.2	545.72 ± 2.8
573.15 K, 1455 kPa, Gas, x1 = 0.8	22.47 ± 0.07
573.15 K, 1761 kPa, Gas, x1 = 0.2	24.87 ± 0.08
573.15 K, 2249 kPa, Gas, x1 = 0.8	36.6 ± 0.11
573.15 K, 3350 kPa, Gas, x1 = 0.8	58.27 ± 0.18
573.15 K, 3774 kPa, Gas, x1 = 0.2	52.88 ± 0.16
573.15 K, 4034 kPa, Fluid (supercritical or subcritical phases), x1 = 0.8	73.62 ± 0.37
573.15 K, 4329 kPa, Fluid (supercritical or subcritical phases), x1 = 0.9	83.18 ± 0.42
573.15 K, 5099 kPa, Fluid (supercritical or subcritical phases), x1 = 0.2	91.19 ± 0.46
573.15 K, 5320 kPa, Fluid (supercritical or subcritical phases), x1 = 0.8	106.15 ± 0.54
573.15 K, 5748 kPa, Fluid (supercritical or subcritical phases), x1 = 0.9	123.05 ± 0.62
573.15 K, 5856 kPa, Fluid (supercritical or subcritical phases), x1 = 0.2	114.08 ± 0.58
573.15 K, 6139 kPa, Fluid (supercritical or subcritical phases), x1 = 0.9	133.8 ± 0.68
573.15 K, 6637 kPa, Fluid (supercritical or subcritical phases), x1 = 0.8	139.97 ± 0.71
573.15 K, 6909 kPa, Fluid (supercritical or subcritical phases), x1 = 0.2	149.98 ± 0.76
573.15 K, 7024 kPa, Fluid (supercritical or subcritical phases), x1 = 0.9	163.56 ± 0.83
573.15 K, 7062 kPa, Fluid (supercritical or subcritical phases), x1 = 0.8	155.67 ± 0.79
573.15 K, 7474 kPa, Fluid (supercritical or subcritical phases), x1 = 0.8	169.37 ± 0.86
573.15 K, 7491 kPa, Fluid (supercritical or subcritical phases), x1 = 0.2	175.18 ± 0.9
573.15 K, 7658 kPa, Fluid (supercritical or subcritical phases), x1 = 0.8	175.6 ± 0.89
573.15 K, 7755 kPa, Fluid (supercritical or subcritical phases), x1 = 0.2	189.17 ± 0.97
573.15 K, 7776 kPa, Fluid (supercritical or subcritical phases), x1 = 0.8	180.39 ± 0.91
573.15 K, 7805 kPa, Fluid (supercritical or subcritical phases), x1 = 0.9	188.99 ± 0.96
573.15 K, 8168 kPa, Fluid (supercritical or subcritical phases), x1 = 0.8	192.69 ± 0.98
573.15 K, 8184 kPa, Fluid (supercritical or subcritical phases), x1 = 0.9	201.88 ± 1
573.15 K, 8351 kPa, Fluid (supercritical or subcritical phases), x1 = 0.2	219.55 ± 1.1
573.15 K, 8805 kPa, Fluid (supercritical or subcritical phases), x1 = 0.9	220.14 ± 1.1
573.15 K, 8815 kPa, Fluid (supercritical or subcritical phases), x1 = 0.8	213.33 ± 1.1
573.15 K, 8859 kPa, Fluid (supercritical or subcritical phases), x1 = 0.2	244.86 ± 1.2
573.15 K, 9002 kPa, Fluid (supercritical or subcritical phases), x1 = 0.8	219.08 ± 1.1
573.15 K, 9138 kPa, Fluid (supercritical or subcritical phases), x1 = 0.2	258.55 ± 1.3
573.15 K, 9198 kPa, Fluid (supercritical or subcritical phases), x1 = 0.9	232.49 ± 1.2
573.15 K, 9211 kPa, Fluid (supercritical or subcritical phases), x1 = 0.2	262.25 ± 1.3
573.15 K, 9316 kPa, Fluid (supercritical or subcritical phases), x1 = 0.9	235.95 ± 1.2
573.15 K, 9432 kPa, Fluid (supercritical or subcritical phases), x1 = 0.2	271.68 ± 1.4
573.15 K, 9453 kPa, Fluid (supercritical or subcritical phases), x1 = 0.9	240.34 ± 1.2
573.15 K, 9462 kPa, Fluid (supercritical or subcritical phases), x1 = 0.8	234.13 ± 1.2
573.15 K, 9562 kPa, Fluid (supercritical or subcritical phases), x1 = 0.9	243.64 ± 1.2
573.15 K, 9806 kPa, Fluid (supercritical or subcritical phases), x1 = 0.8	244.74 ± 1.2
573.15 K, 9864 kPa, Fluid (supercritical or subcritical phases), x1 = 0.2	289.81 ± 1.5
573.15 K, 10272 kPa, Fluid (supercritical or subcritical phases), x1 = 0.2	306.05 ± 1.6
573.15 K, 10324 kPa, Fluid (supercritical or subcritical phases), x1 = 0.8	257.93 ± 1.3
573.15 K, 10392 kPa, Fluid (supercritical or subcritical phases), x1 = 0.2	310.27 ± 1.6
573.15 K, 10713 kPa, Fluid (supercritical or subcritical phases), x1 = 0.2	317.97 ± 1.6
573.15 K, 10865 kPa, Fluid (supercritical or subcritical phases), x1 = 0.8	271.86 ± 1.4
573.15 K, 11108 kPa, Fluid (supercritical or subcritical phases), x1 = 0.9	281.31 ± 1.4
573.15 K, 11531 kPa, Fluid (supercritical or subcritical phases), x1 = 0.2	340.39 ± 1.7
573.15 K, 11654 kPa, Fluid (supercritical or subcritical phases), x1 = 0.2	343.17 ± 1.7
573.15 K, 11678 kPa, Fluid (supercritical or subcritical phases), x1 = 0.8	287.66 ± 1.4
573.15 K, 12021 kPa, Fluid (supercritical or subcritical phases), x1 = 0.9	300.93 ± 1.5
573.15 K, 12217 kPa, Fluid (supercritical or subcritical phases), x1 = 0.8	298.45 ± 1.5
573.15 K, 12707 kPa, Fluid (supercritical or subcritical phases), x1 = 0.9	311.54 ± 1.6
573.15 K, 13246 kPa, Fluid (supercritical or subcritical phases), x1 = 0.8	314.57 ± 1.6
573.15 K, 13392 kPa, Fluid (supercritical or subcritical phases), x1 = 0.2	377.65 ± 1.9
573.15 K, 13687 kPa, Fluid (supercritical or subcritical phases), x1 = 0.2	382.44 ± 1.9
573.15 K, 14239 kPa, Fluid (supercritical or subcritical phases), x1 = 0.9	333.19 ± 1.7
573.15 K, 14284 kPa, Fluid (supercritical or subcritical phases), x1 = 0.2	390.25 ± 2
573.15 K, 14505 kPa, Fluid (supercritical or subcritical phases), x1 = 0.8	333.01 ± 1.7
573.15 K, 15392 kPa, Fluid (supercritical or subcritical phases), x1 = 0.8	344.5 ± 1.7
573.15 K, 16409 kPa, Fluid (supercritical or subcritical phases), x1 = 0.9	353.22 ± 1.8
573.15 K, 16662 kPa, Fluid (supercritical or subcritical phases), x1 = 0.2	417.59 ± 2.1
573.15 K, 17250 kPa, Fluid (supercritical or subcritical phases), x1 = 0.8	361.01 ± 1.8
573.15 K, 23293 kPa, Fluid (supercritical or subcritical phases), x1 = 0.2	469.08 ± 2.4
573.15 K, 24391 kPa, Fluid (supercritical or subcritical phases), x1 = 0.9	406.23 ± 2
573.15 K, 25613 kPa, Fluid (supercritical or subcritical phases), x1 = 0.8	417.11 ± 2.1
573.15 K, 32252 kPa, Fluid (supercritical or subcritical phases), x1 = 0.2	508.13 ± 2.6
573.15 K, 39390 kPa, Fluid (supercritical or subcritical phases), x1 = 0.8	465.43 ± 2.4
